Assays:
[1] = tested on: mice; assay: High-fat diet mice given TMAVA in drinking water for 8 weeks (fatty liver and myocardial hypertrophy); assay type: in vivo
From the text: (§1) Mice in an experimental group were given a high-fat diet and drinking water dissolved with 0.325% (mass/volume %) TMAVA for 8 weeks; and mice in a control group were given a high-fat diet and normal drinking water. After 8 weeks, the mice in the experimental group and the control group were sacrificed and tested.

[2] = tested on: mice; assay: Carnitine absorption: d9-carnitine by gavage in TMAVA-treated mice; assay type: in vivo
[3] = target: T1, γ-isopropylbetaine hydroxylase (Bbox) (Mus musculus, UniProt Q924Y0); assay: d9 carnitine formation from d9-γ-BB in high-fat diet mice given TMAVA; assay type: in vivo; conditions: 0.325% TMAVA in drinking water and d9-γ-BB, 8 weeks
T1 construct: from tissue; host or cells: whole animal (mice on high-fat diet)
T1 sequence (Q924Y0 1-387): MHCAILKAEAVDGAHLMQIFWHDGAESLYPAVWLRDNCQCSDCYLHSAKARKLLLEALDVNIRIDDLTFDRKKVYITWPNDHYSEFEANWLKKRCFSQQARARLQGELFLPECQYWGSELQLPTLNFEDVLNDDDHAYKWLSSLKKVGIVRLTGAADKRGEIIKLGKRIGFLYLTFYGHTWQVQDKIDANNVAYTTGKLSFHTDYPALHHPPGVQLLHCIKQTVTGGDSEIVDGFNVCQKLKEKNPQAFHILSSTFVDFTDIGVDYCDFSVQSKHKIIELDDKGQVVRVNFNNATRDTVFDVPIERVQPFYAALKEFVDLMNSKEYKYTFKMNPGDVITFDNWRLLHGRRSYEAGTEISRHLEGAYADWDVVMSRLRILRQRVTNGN
From the text: Endogenous carnitine synthesis played an important role in physiological dynamic equilibrium. A carnitine precursor (γ-BB) was hydroxylated by y-isopropylbetaine hydroxylase (Bbox) to produce carnitine.
Mice in an experimental group were given a high-fat diet, drinking water dissolved with 0.325% (mass/volume %) TMAVA, and d9-γ-BB; and mice in the control group were given a high-fat diet, normal drinking water, and d9-γ-BB. After 8 weeks, the mice in the experimental group and the control group were sacrificed and tested.

[4] = tested on: mice; assay: Lipidolysis in high-fat diet mice given TMAVA in drinking water for 8 weeks; assay type: in vivo
From the text: as §1, with “TMAVA;” for “TMAVA for 8 weeks;”

[5] = target: T2, γ-isopropylbetaine hydroxylase (Bbox) (Homo sapiens, UniProt O75936); assay: Bbox immobilized on a graphene surface and contacted with TMAVA; assay type: binding; conditions: in a similar way as γ-BB to Bbox
T2 sequence (O75936 1-387): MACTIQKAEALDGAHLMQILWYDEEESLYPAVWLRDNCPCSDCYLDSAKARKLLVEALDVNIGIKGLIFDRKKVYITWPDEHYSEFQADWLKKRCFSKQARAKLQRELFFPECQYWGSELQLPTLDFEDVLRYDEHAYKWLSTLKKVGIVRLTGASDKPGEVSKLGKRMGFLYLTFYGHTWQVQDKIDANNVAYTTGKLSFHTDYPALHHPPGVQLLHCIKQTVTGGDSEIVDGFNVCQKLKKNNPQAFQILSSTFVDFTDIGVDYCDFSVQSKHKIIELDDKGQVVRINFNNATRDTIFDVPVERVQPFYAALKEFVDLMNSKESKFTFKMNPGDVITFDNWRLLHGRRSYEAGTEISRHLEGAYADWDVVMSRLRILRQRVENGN

[6] = target: T2, γ-isopropylbetaine hydroxylase (Bbox); assay: Binding affinity of Bbox and TMAVA by surface plasmon resonance; conditions: read-out: separation rate coefficient constant (binding affinity of Bbox and TMAVA)
[7] = tested on: mice; assay: TML added to the drinking water of mice, urine TMAVA; assay type: in vivo
From the text: The antibiotic-treated mice were then placed in conventional cages with normal (non-sterile) mice to colonize the intestinal flora.

[8] = target: T3, DavA and DavB proteins (Pseudomonas putida, UniProt Q88QV1); conditions: purified DavA and DavB proteins from recombinant Escherichia coli strains
T3 sequence (Q88QV1 1-560): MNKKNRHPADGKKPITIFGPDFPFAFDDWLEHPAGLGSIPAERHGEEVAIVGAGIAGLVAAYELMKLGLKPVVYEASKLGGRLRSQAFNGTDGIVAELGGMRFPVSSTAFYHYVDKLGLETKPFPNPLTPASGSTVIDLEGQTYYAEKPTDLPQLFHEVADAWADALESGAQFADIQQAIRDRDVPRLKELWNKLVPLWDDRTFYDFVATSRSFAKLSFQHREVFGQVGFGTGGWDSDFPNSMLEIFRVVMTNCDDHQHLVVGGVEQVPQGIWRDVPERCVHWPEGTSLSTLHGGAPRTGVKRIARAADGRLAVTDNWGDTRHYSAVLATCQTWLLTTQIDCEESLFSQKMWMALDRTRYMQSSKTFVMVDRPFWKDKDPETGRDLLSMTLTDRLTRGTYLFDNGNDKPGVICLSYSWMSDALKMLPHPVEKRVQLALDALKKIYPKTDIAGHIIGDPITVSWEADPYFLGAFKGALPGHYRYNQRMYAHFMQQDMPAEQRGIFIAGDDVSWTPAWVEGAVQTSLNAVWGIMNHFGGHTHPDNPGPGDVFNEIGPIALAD

[9] = tested on: intestinal flora; assay: Co-incubation of conventionally raised mice feces with TML; conditions: different concentrations of TML, sterilized feces had no such effect
[10] = tested on: mice; assay: Exogenous carnitine supplementation in TMAVA-induced fatty liver and myocardial hypertrophy in mice; assay type: in vivo; conditions: high-fat diet, 0.325% TMAVA plus 0.325% carnitine in drinking water, 8 weeks
From the text: Mice were given a high-fat diet and drinking water containing 0.325% (mass/volume %) TMAVA; at the same time, one group was given TMAVA with 0.325% (mass/volume %) carnitine added to the drinking water (carnitine supplementation group).

[11] = tested on: mice; assay: d9-TML by gavage in mice, plasma d9-TMAVA; assay type: in vivo
[12] = histological analysis, 0.325% TMAVA

**Q.** `C[N+](C)(C)CCCCC(=O)[O-]` [TMAVA, N,N,N-trimethyl-5-aminovaleric acid] was tested. Which “concentration of TMAVA in the plasma and various tissues, increase compared with control group” value ([1]; 0.325% (mass/volume %) TMAVA in drinking water) did it give?
**A.** 10 times

**Q.** And the cardiac systolic function ([1]; 0.325% TMAVA in drinking water)?
**A.** significantly reduced

**Q.** And the “concentration of aspartate aminotransferase in the plasma compared with control group” value ([1]; 0.325% TMAVA in drinking water)?
**A.** higher

**Q.** And the “level of triglyceride in the liver and heart tissues compared with control group” value ([1]; 0.325% TMAVA in drinking water)?
**A.** significantly higher

**Q.** And the “lipid droplet content in the liver and heart tissues (oil red O) compared with control group” value ([1]; 0.325% TMAVA in drinking water)?
**A.** higher

**Q.** What about the “liver and heart size compared with control group” value ([1]; 0.325% TMAVA in drinking water) of the same compound?
**A.** significantly larger

**Q.** What about the “content of triglyceride in the plasma compared with control group” value ([1]; fasting state, 0.325% TMAVA in drinking water) of the same compound?
**A.** significantly higher

**Q.** What about the “level of d9-carnitine in the plasma compared with normal mice” value [2] of the same compound?
**A.** significantly lower

**Q.** And the “level of d9 carnitine compared with control group” value [3]?
**A.** significantly lower

**Q.** What about the “level of free fatty acid in the blood compared with control group” value ([4]; 0.325% TMAVA in drinking water) of the same compound?
**A.** higher

**Q.** What about the “weight of the mice, decrease compared with control group” value ([4]; 0.325% TMAVA in drinking water) of the same compound?
**A.** 30%

**Q.** And the “percentage of large and medium-sized fat cells in the subcutaneous fat” value [4, 12]?
**A.** decreased

**Q.** What about the “percentage of small fat cells in the subcutaneous fat” value [4, 12] of the same compound?
**A.** increased

**Q.** And the “binding of TMAVA to Bbox on graphene surface” value [5]?
**A.** can bind to Bbox

**Q.** And the Kd [6]?
**A.** 9.8 µM

**Q.** What does the source list for `C[N+](C)(C)CCCC[C@H](N)C(=O)O` [TML, Trimethyllysine]?
**A.** TMAVA level in urine [7]: increased; TMAVA production in vitro from TML [8]: time-dependently produced; TMAVA level on co-incubation of feces with TML [9]: increased over time and concentration

**Q.** For `C[N+](C)(C)CC(O)CC(=O)[O-]` (centres unmarked) [carnitine], which “aspartate aminotransferase after carnitine supplementation” value [10] is on record?
**A.** 50 U/L

**Q.** What about the cardiac systolic function [10] of the same compound?
**A.** significantly improved

**Q.** What about the “content of triglyceride in the liver tissues, decrease” value [10] of the same compound?
**A.** 20%

**Q.** And the “level of free fatty acid in the plasma” value [10]?
**A.** decreased

**Q.** And the “level of triglyceride in the plasma, decrease” value [10]?
**A.** 50%

**Q.** What about the “lipid content in the liver tissues (oil red O)” value [10] of the same compound?
**A.** decreased

**Q.** What about the “weight of the heart” value [10] of the same compound?
**A.** significantly reduced

**Q.** `[2H]C([2H])([2H])[N+](CCCCC(N)C(=O)[O-])(C([2H])([2H])[2H])C([2H])([2H])[2H]` (centres unmarked) [d9-TML] was tested. Which “plasma level of d9-TMAVA after d9-TML” value [11] did it give?
**A.** increase over time

— US20230113511A1, “USE OF TMAVA ANTAGONIST AND SYSTEM FOR DIAGNOSING FATTY LIVER OR HEART FAILURE” (ProgLead, Inc, priority 2020, published 2023)
